We go through 51 molecules from the PolyMetriX glass transition set.

Molecule `*/C(=C(/*)c1ccc([Si](C(C)C)(C(C)C)C(C)C)cc1)c1ccccc1` (repeat unit) gave a glass transition temperature of 250.00 °C.
Then `*/C=C(\F)C(F)(F)C*` (repeat unit), with -35.00 °C.
The figure for `*CCCCCCCCCCCc1nc2ccc(-c3ccc4nc(*)oc4c3)cc2o1` (repeat unit) is 62.00 °C; for `*Oc1cccc(C(=O)c2ccc(*)cc2)c1` (repeat unit) it is 137.00 °C; for `*c1ccc(-c2ccc(-c3cc(-c4ccc(Oc5ccc(Oc6ccccc6)cc5)cc4)c4cc(-c5ccc6nc(*)cc(-c7ccc(Oc8ccc(Oc9ccccc9)cc8)cc7)c6c5)ccc4n3)cc2)cc1` (repeat unit) it is 355.00 °C.
Then `*c1ccc(-c2ccc(-c3cc(-c4ccccc4)c4cc(C5(c6ccc7nc(*)cc(-c8ccccc8)c7c6)c6ccccc6C(=O)c6ccccc65)ccc4n3)cc2)cc1` (repeat unit), with 350.00 °C; and `*c1ccc(-c2cnc3cc(S(=O)(=O)c4ccc5nc(*)cnc5c4)ccc3n2)cc1` (repeat unit), with 342.00 °C; and `*c1ccc(-c2nc3cc(-c4ccc5nc(*)c(-c6ccc7ccccc7c6)nc5c4)ccc3nc2-c2ccc3ccccc3c2)cc1` (repeat unit), with 333.00 °C.
For the molecule `*c1ccc(-c2nc3cc(-c4ccc5nc(*)c(-c6ccccc6)nc5c4)ccc3nc2-c2ccccc2)cc1` (repeat unit), the glass transition temperature was 391.50 °C.
`*c1ccc(-c2nc3cc(S(=O)(=O)c4ccc5nc(-c6ccccc6)c(*)nc5c4)ccc3nc2-c2ccccc2)cc1` (repeat unit): the glass transition temperature came out at 345.00 °C.
Then `*c1ccc(-c2nc3ccc(S(=O)(=O)c4ccc5nc(*)c(-c6ccccc6)nc5c4)cc3nc2-c2ccccc2)cc1` (repeat unit), with 345.00 °C; and `*c1ccc(OCCCCCCCCCCCOc2ccc(-c3ccc4nc(-c5cccc(-c6cc(-c7ccccc7)c7cc(*)ccc7n6)c5)cc(-c5ccccc5)c4c3)cc2)cc1` (repeat unit), with 133.50 °C; and `*c1ccc(Oc2ccc(-c3c(-c4ccccc4)c4c(c(-c5ccccc5)c3-c3ccccc3)C(=O)N(c3cccc(N5C(=O)c6c(c(-c7ccccc7)c(-c7ccccc7)c(*)c6-c6ccccc6)C5=O)c3)C4=O)cc2)cc1` (repeat unit), with 357.00 °C.
Then `*c1ccc(Oc2ccc(-c3c(-c4ccccc4)nc4ccc(-c5ccc6nc(-c7ccccc7)c(*)c(-c7ccccc7)c6c5)cc4c3-c3ccccc3)cc2)cc1` (repeat unit), with 307.50 °C; and `*c1ccc(Oc2ccc(-c3nc(-c4cccc(-c5nnc(-c6ccccc6)c(*)n5)n4)nnc3-c3ccccc3)cc2)cc1` (repeat unit), with 219.00 °C.
The figure for `*c1ccc(Oc2ccc(-n3nccc3-c3cccc(-c4ccnn4*)c3)cc2)cc1` (repeat unit) is 216.00 °C; for `*c1ccc(Oc2cccc(-n3c(=O)c4cc5c(=O)n(*)c(=O)c5cc4c3=O)c2)cc1` (repeat unit) it is 397.00 °C.
The molecule `*c1ccc(Oc2cccc(-n3c(=O)c4cc5c(=O)n(-c6cccc(Oc7ccc(-c8nc9cc%10sc(*)nc%10cc9s8)cc7)c6)c(=O)c5cc4c3=O)c2)cc1` (repeat unit) yielded a glass transition temperature of 400.00 °C.
The figure for `*c1ccc(Sc2ccc(-c3nc4cc(-c5ccc6nc(-c7ccccc7)c(*)nc6c5)ccc4nc3-c3ccccc3)cc2)cc1` (repeat unit) is 288.00 °C; for `*c1ccc(Sc2ccc(-c3nc4ccc(-c5ccc6nc(*)c(-c7ccccc7)nc6c5)cc4nc3-c3ccccc3)cc2)cc1` (repeat unit) it is 288.00 °C.
Consider `*c1ccc2c(c1)C(=O)N(c1ccc(Oc3ccc(C(=O)c4cccc(N5C(=O)c6ccc(C(*)(C(F)(F)F)C(F)(F)F)cc6C5=O)c4)cc3)c(C(F)(F)F)c1)C2=O` (repeat unit), for which the glass transition temperature was found to be 222.00 °C.
The figure for `*c1ccc2c(c1)C(=O)N(c1ccc(Oc3ccc(C(=O)c4cccc(N5C(=O)c6ccc(C(*)(C(F)(F)F)C(F)(F)F)cc6C5=O)c4)cc3)cc1)C2=O` (repeat unit) is 242.00 °C.
Then `*c1ccc2oc(-c3ccc(-c4nc5cc(C(*)(c6ccccc6)C(F)(F)F)ccc5o4)cc3)nc2c1` (repeat unit), with 369.00 °C; and `*c1ccc2oc(-c3ccc(Oc4ccc(-c5nc6cc(C(*)(C(F)(F)F)C(F)(F)F)ccc6o5)cc4)cc3)nc2c1` (repeat unit), with 303.00 °C; and `*c1ccc2oc(-c3ccc4oc5ccc(-c6nc7cc(C(*)(C(F)(F)F)C(F)(F)F)ccc7o6)cc5c4c3)nc2c1` (repeat unit), with 195.00 °C.
The molecule `*c1ccc2oc(C3CCC(c4nc5cc(C(*)(C(F)(F)F)C(F)(F)F)ccc5o4)CC3)nc2c1` (repeat unit) had a glass transition temperature of 271.00 °C.
The figure for `*c1cccc(*)c1` (repeat unit) is 104.93 °C; for `*c1cccc(-c2nc3cc(-c4ccc5nc(*)c(-c6ccccc6)nc5c4)ccc3nc2-c2ccccc2)c1` (repeat unit) it is 319.00 °C; for `*c1cccc(-c2nc3cc(-c4ccc5nc(-c6ccccc6)c(*)nc5c4)ccc3nc2-c2ccccc2)c1` (repeat unit) it is 320.00 °C.
Then `*c1cccc(-c2nc3cc4nc(*)c(-c5ccccc5)nc4cc3nc2-c2ccccc2)c1` (repeat unit), with 365.00 °C; and `*c1cccc(-n2c(=O)c3cc4c(=O)n(*)c(=O)c4cc3c2=O)n1` (repeat unit), with 183.50 °C; and `*c1cccc(C(=O)c2ccc(Oc3ccc(N4C(=O)c5ccc(Oc6ccc7c(c6)C(=O)N(*)C7=O)cc5C4=O)cc3)cc2)c1` (repeat unit), with 232.00 °C.
The figure for `*c1cccc(N2C(=O)C(=O)N(CCCCCCN3C(=O)C(=O)N(*)C3=O)C2=O)n1` (repeat unit) is 169.50 °C; for `*c1cccc(N2C(=O)c3c(c(-c4ccccc4)c(-c4ccc(-c5c(-c6ccccc6)c6c(c(-c7ccccc7)c5-c5ccccc5)C(=O)N(*)C6=O)cc4)c(-c4ccccc4)c3-c3ccccc3)C2=O)c1` (repeat unit) it is 416.00 °C; for `*c1cccc(OP(=O)(Oc2cccc(-n3c(=O)c4cc5c(=O)n(*)c(=O)c5cc4c3=O)c2)c2ccccc2)c1` (repeat unit) it is 191.00 °C.
Molecule `*c1cccc(Oc2ccc(S(=O)(=O)c3ccc(Oc4cccc(-n5c(=O)c6cc7c(=O)n(*)c(=O)c7cc6c5=O)c4)cc3)cc2)c1` (repeat unit) displayed a glass transition temperature of 223.2 °C.
Then `*c1cccc(Oc2cccc(Oc3cccc(N4C(=O)C5C6C=CC(C7C(=O)N(*)C(=O)C67)C5C4=O)c3)c2)c1` (repeat unit), with 177.00 °C; and `*c1cccc(Oc2cccc(Oc3cccc(N4C(=O)c5c(c(-c6ccccc6)c(-c6ccc(Oc7ccc(-c8c(-c9ccccc9)c9c(c(-c%10ccccc%10)c8-c8ccccc8)C(=O)N(*)C9=O)cc7)cc6)c(-c6ccccc6)c5-c5ccccc5)C4=O)c3)c2)c1` (repeat unit), with 261.00 °C; and `*c1cccc(Oc2cccc(Oc3cccc(N4C(=O)c5c(c(-c6ccccc6)c(-c6ccc(Oc7ccc(Oc8ccc(-c9c(-c%10ccccc%10)c%10c(c(-c%11ccccc%11)c9-c9ccccc9)C(=O)N(*)C%10=O)cc8)cc7)cc6)c(-c6ccccc6)c5-c5ccccc5)C4=O)c3)c2)c1` (repeat unit), with 238.00 °C.
Then `*c1cccc(P(=O)(c2ccc(C(F)(F)F)cc2)c2cccc(-n3c(=O)c4c(-c5cc(C(F)(F)F)cc(C(F)(F)F)c5)c5c(=O)n(*)c(=O)c5c(-c5cc(C(F)(F)F)cc(C(F)(F)F)c5)c4c3=O)c2)c1` (repeat unit), with 311.00 °C.
`*c1cccc(P(=O)(c2ccc(C(F)(F)F)cc2)c2cccc(-n3c(=O)c4c(-c5ccc(C(F)(F)F)cc5)c5c(=O)n(*)c(=O)c5c(-c5ccc(C(F)(F)F)cc5)c4c3=O)c2)c1` (repeat unit) yielded a glass transition temperature of 324.00 °C.
The figure for `*c1cccc(P(=O)(c2ccc(C(F)(F)F)cc2)c2cccc(-n3c(=O)c4cc5c(=O)n(*)c(=O)c5c(-c5ccc(C(F)(F)F)cc5)c4c3=O)c2)c1` (repeat unit) is 303.00 °C; for `*c1cccc(P(=O)(c2ccc(C(F)(F)F)cc2)c2cccc(-n3c(=O)c4cc5c(=O)n(*)c(=O)c5c(-c5ccccc5)c4c3=O)c2)c1` (repeat unit) it is 311.00 °C.
`*c1cccc(P(=O)(c2ccc(Oc3ccc(C45CC6CC(CC(C6)C4)C5)cc3)cc2)c2cccc(-n3c(=O)c4cc5c(=O)n(*)c(=O)c5cc4c3=O)c2)c1` (repeat unit) came in with a glass transition temperature of 330.00 °C.
The figure for `*c1cccc(P(=O)(c2cccc(-n3c(=O)c4c(-c5ccccc5)c5c(=O)n(*)c(=O)c5c(-c5ccccc5)c4c3=O)c2)c2cc(C(F)(F)F)cc(C(F)(F)F)c2)c1` (repeat unit) is 320.00 °C; for `*c1cccc(P(=O)(c2ccccc2)c2cccc(-n3c(=O)c4c(-c5cc(C(F)(F)F)cc(C(F)(F)F)c5)c5c(=O)n(*)c(=O)c5c(-c5cc(C(F)(F)F)cc(C(F)(F)F)c5)c4c3=O)c2)c1` (repeat unit) it is 324.00 °C.
In turn, `*c1cccc(P(=O)(c2ccccc2)c2cccc(-n3c(=O)c4c(-c5ccccc5)c5c(=O)n(*)c(=O)c5c(-c5ccccc5)c4c3=O)c2)c1` (repeat unit) yielded a glass transition temperature of 342.00 °C.
The figure for `*c1cccc(P(=O)(c2ccccc2)c2cccc(-n3c(=O)c4cc5c(=O)n(*)c(=O)c5c(-c5ccc(C(F)(F)F)cc5)c4c3=O)c2)c1` (repeat unit) is 321.00 °C; for `*c1cccc(P(C)(=O)c2cccc(N3C(=O)c4ccc(NC(=O)OCCOc5ccc(P(=O)(c6ccccc6)c6ccc(OCCOC(=O)Nc7ccc8c(c7)C(=O)N(*)C8=O)cc6)cc5)cc4C3=O)c2)c1` (repeat unit) it is 201.00 °C; for `*c1ccccc1C(=O)Oc1ccc2c(*)c3ccc(=O)cc-3oc2c1` (repeat unit) it is 250.00 °C.
In turn, `*c1cn(*)c2ccccc12` (repeat unit) displayed a glass transition temperature of 65.00 °C.
